Test results from US6969697B2, “Substituted benzoylcyclohexenones” (Bayer Aktiengesellschaft, priority 2000, dated 2005).

Assays:
[1] = logP by reversed-phase HPLC (EEC Directive 79/831 Annex V.A8), acidic range; assay type: physicochemical; settings: reversed-phase column (C 18), 43° C.; a) acidic range: 0.1% aqueous phosphoric acid, acetonitrile, linear gradient 10% to 90%
Description: The logP values given in Table 1 were determined in accordance with EEC Directive 79/831 Annex V.A8 by HPLC (High Performance Liquid Chromatography) using a reversed-phase column (C 18). Temperature: 43° C. • (a) Mobile phases for the determination in the acidic range: 0.1% aqueous phosphoric acid, acetonitrile; linear gradient from 10% acetonitrile to 90% acetonitrile—the corresponding data are labelled ^a) in Table 1. • (b) Mobile phases for the determination in the neutral range: 0.01 molar aqueous phosphate buffer solution, acetonitrile; linear gradient from 10% acetonitrile to 90% acetonitrile—corresponding data are labelled ^b) in Table 1.
Calibration was carried out using unbranched alkan-2-ones (having 3 to 16 carbon atoms), with known logP values (determination of the logP values by the retention times using linear interpolation between two successive alkanones).

[2] = test system: weeds; assay: Post-emergence test (Example B), herbicidal activity; assay type: in vivo; settings: test plants 5-15 cm sprayed, rated after three weeks
Description: (§1) • Solvent: 5 parts by weight of acetone • Emulsifier: 1 part by weight of alkilaryl polyglycol ether
(§2) To produce a suitable preparation of active compound, 1 part by weight of active compound is mixed with the stated amount of solvent, the stated amount of emulsifier is added and the concentrate is diluted with water to the desired concentration.
(§3) Test plants of a height of 5-15 cm are sprayed with the preparation of active compound such that the particular amounts of active compound desired are applied per unit area. The concentration of the spray liquor is chosen such that the particular amounts of active compound desired are applied in 1000 l of water/ha.
(§4) After three weeks, the degree of damage to the plants is rated in % damage in comparison to the development of the untreated control.
(§5) The figures denote: • 0%=no effect (like untreated control) • 100%=total destruction

[3] = test system: maize; assay: Post-emergence test (Example B), crop plant tolerance, maize; assay type: in vivo; settings: rated after three weeks
Description: as §1, §2, §3, §4, §5

[4] = test system: wheat; assay: Post-emergence test (Example B), crop plant tolerance, wheat; assay type: in vivo; settings: rated after three weeks
Description: as §1, §2, §3, §4, §5

[5] = test system: weeds; assay: Pre-emergence test (Example A), herbicidal activity; assay type: in vivo; settings: soil sprayed 24 hours after sowing, rated after three weeks
Description: as §1, §2
(§6) Seeds of the test plants are sown in normal soil. After 24 hours, the soil is sprayed with the preparation of active compound such that the particular amount of active compound desired is applied per unit area. The concentration of active compound in the spray liquor is chosen such that the particular amount of active compound desired is applied in 1000 litres of water per hectare.
(§7) After three weeks, the degree of damage to the plants is rated in % damage in comparison to the development of the untreated control. The figures denote: • 0%=no effect (like untreated control) • 100%=total destruction

[6] = test system: maize; assay: Pre-emergence test (Example A), crop plant tolerance; assay type: in vivo; settings: rated after three weeks
Description: as §1, §2, §6, §7

## COc1nn(Cc2c(Cl)ccc(C(=O)C3=C(S(=O)(=O)c4ccccc4)CCCC3=O)c2Cl)c(=O)n1C [Example 14]
[1]
  logP: logP = 2.62^a)

## CSc1nn(Cc2c(Cl)ccc(C(=O)C3=C(Sc4ccccc4)CCCC3=O)c2Cl)c(=O)n1C [Example 4]
[1]
  logP: logP = 3.29^a)

## CCN1CCN(Cc2c(S(C)(=O)=O)ccc(C(=O)C3=C(Sc4ccccc4)CCCC3=O)c2Cl)C1=O [Example 9]
[1]
  logP: logP = 2.79^a)

## CC(C)CN1CCN(Cc2c(Cl)ccc(C(=O)C3=C(Sc4ccccc4)CCCC3=O)c2Cl)C1=O [Example 121]
[1]
  logP: logP = 3.98^a)

## CCN1CCN(Cc2c(Cl)ccc(C(=O)C3=C(Sc4ccccc4)CCCC3=O)c2Cl)C1=O [Example 3]
[1]
  logP: logP = 3.30^a)

## CC(C)Oc1nn(Cc2c(Cl)ccc(C(=O)C3=C(Sc4ccccc4)CCCC3=O)c2Cl)c(=O)n1C [Example 12]
[1]
  logP: logP = 3.69^a)

## CN1CCCN(Cc2c(Cl)ccc(C(=O)C3=C(Sc4ccccc4)CCCC3=O)c2Cl)C1=O [Example 1, 1-[2,6-dichloro-3-[(6-oxo-2-phenylthio-1-cyclohexen-1-yl)-carbonyl]-benzyl]-3-methyl-tetrahydro-2(1H)-pyrimidinone]
[2]
  activity against weeds (degree of damage): strong activity against weeds
other
  melting point: 140 °C
[3]
  tolerance by crop plants: tolerated well
[4]
  tolerance by crop plants: tolerated well

## O=C1CCCC(Sc2ccccc2)=C1C(=O)c1ccc(Cl)c(Cn2nc(C3CC3)n(C3CC3)c2=O)c1Cl [Example 5]
[2]
  activity against weeds (degree of damage): strong activity against weeds
[3]
  tolerance by crop plants: tolerated well
[4]
  tolerance by crop plants: tolerated well
[1]
  logP: logP = 3.50^a)

## CN(C)c1nn(Cc2c(Cl)ccc(C(=O)C3=C(Sc4ccccc4)CCCC3=O)c2Cl)c(=O)n1C [Example 13]
[1]
  logP: logP = 3.10^a)

## COc1nn(Cc2cc(C(F)(F)F)ccc2C(=O)C2=C(Sc3ccccc3)CCCC2=O)c(=O)n1C [Example 18]
[2]
  activity against weeds (degree of damage): strong activity against weeds
[3]
  tolerance by crop plants: tolerated well
[4]
  tolerance by crop plants: tolerated well
[1]
  logP: logP = 3.30^a)

## CSc1nn(Cc2c(S(C)(=O)=O)ccc(C(=O)C3=C(Sc4ccccc4)CCCC3=O)c2Cl)c(=O)n1C [Example 6]
[1]
  logP: logP = 2.84^a)

## CCCCN1CCN(Cc2c(Cl)ccc(C(=O)C3=C(Sc4ccccc4)CCCC3=O)c2Cl)C1=O [Example 120]
[1]
  logP: logP = 4.02^a)

## CCOn1c(CC)nn(Cc2c(S(C)(=O)=O)ccc(C(=O)C3=C(Sc4ccccc4)CCCC3=O)c2Cl)c1=O [Example 10]
[1]
  logP: logP = 3.13^a)

## COc1nn(Cc2c(S(C)(=O)=O)ccc(C(=O)C3=C(Sc4ccccc4)CCCC3=O)c2Cl)c(=O)n1C [Example 7]
[1]
  logP: logP = 2.67^a)

## COc1nn(Cc2cc(C(F)(F)F)ccc2C(=O)C2=C(SC)CCCC2=O)c(=O)n1C [Example 19]
[2]
  activity against weeds (degree of damage): strong activity against weeds
[3]
  tolerance by crop plants: tolerated well
[4]
  tolerance by crop plants: tolerated well
[1]
  logP: logP = 2.41^a)

## CN1CCN(Cc2c(S(C)(=O)=O)ccc(C(=O)C3=C(Sc4ccccc4)CCCC3=O)c2Cl)C1=O [Example 8]
[1]
  logP: logP = 2.56^a)

## COc1nn(Cc2c(Cl)ccc(C(=O)C3=C(Sc4ccccc4)CCCC3=O)c2Cl)c(=O)n1C [Example 11]
[1]
  logP: logP = 3.06^a)

## CN1CCN(Cc2c(Cl)ccc(C(=O)C3=C(Sc4ccccc4)CCCC3=O)c2Cl)C1=O [Example 2]
[2]
  activity against weeds (degree of damage): strong activity against weeds
[3]
  tolerance by crop plants: tolerated well
[4]
  tolerance by crop plants: tolerated well
[1]
  logP: logP = 3.02^a)

## CSc1nn(Cc2cc(C(F)(F)F)ccc2C(=O)C2=C(Sc3ccccc3)CCCC2=O)c(=O)n1C [Example 16]
[2]
  activity against weeds (degree of damage): strong activity against weeds
[3]
  tolerance by crop plants: tolerated well
[5]
  activity against weeds (degree of damage): strong activity against weeds
[4]
  tolerance by crop plants: tolerated well
[6]
  tolerance by crop plants: tolerated well
[1]
  logP: logP = 3.58^a)

## CSC1=C(C(=O)c2ccc(C(F)(F)F)cc2Cn2nc(SC)n(C)c2=O)C(=O)CCC1 [Example 17]
[2]
  activity against weeds (degree of damage): strong activity against weeds
[3]
  tolerance by crop plants: tolerated well
[4]
  tolerance by crop plants: tolerated well
[1]
  logP: logP = 2.63^a)
